Measurements as given in patent US20260250247A1, “NOVEL INDOLINE DERIVATIVE AND USE THEREOF” (CK REGEON INC., priority 2023, published 2026).

Experiments:
Assay type in all cases: in vivo, C57BL/6N mice
[1] = tested on: lipid droplets / PPARγ in liver tissue; test: Liver Oil Red O staining and PPARγ immunohistochemistry in MASH mice; details: 25 mg/kg/day orally for 4 weeks
Procedure: (§1) Five-week-old wild-type male C57BL/6N mice were purchased from Orient Bio Co., Ltd. They were allowed to acclimate to the laboratory environment for one week. Mice weighing 18-20 g on average were used in the experiment. To ensure ethical and scientific validity and efficient management of animal experiments, the experiment was conducted with the approval of the Institutional Review Board (IACUC-A-202205-1472-01) of Severance Hospital, Yonsei University College of Medicine.
(§2) The mice were divided into a normal group (NCD) and a high-fat diet group (HFD). The normal group (NCD) was fed a normal chow diet (NCD, Teklad Global 18% protein rodent diet), and the high-fat diet group (HFD) was fed a high-fat diet (HFD, D12492) in which fat accounted for 60% of the total calories, for 8 weeks.
(§3) Mice induced with metabolic dysfunction-associated steatohepatitis (MASH) (hereinafter, referred to as MASH or MASH group) were prepared by administering CCl4 intraperitoneally twice a week for 4 weeks after feeding the high-fat diet (HFD) for 8 weeks. The […] was diluted with corn oil at a ratio of 1:19 and injected at a dosage of 2 mL/kg. The normal group (NOD) was administered the same volume of physiological saline.
(§4) The animals were divided into 7 groups, each with 10 animals.
It was investigated whether the accumulation of triglycerides in the liver is suppressed effectively. For this purpose, liver tissue was extracted from each group, and it was prepared into 10-μm thick cryosections, which were then stained with Oil Red O. Details are as follows. After preparing the 7 groups, the animals were euthanized using carbon dioxide and the liver tissues were extracted. A certain area of the extracted liver tissue was cryosectioned to 10 μm thickness, fixed in 4% neutral paraformaldehyde for 20 minutes at room temperature, and washed with 70% isopropanol (Duksan Pure Chemicals). After staining with the Oil Red O (Sigma-Aldrich) reagent for 20 minutes, the sections were washed thoroughly three times with distilled water. The tissue was counterstained with Mayer's hematoxylin. Then, Oil Red O staining images were visualized using a bright-field microscope (Nikon TE-2000U).
After preparing the 7 groups, the animals were sacrificed using carbon dioxide and the liver tissues were extracted. The extracted tissues were fixed in 4% neutral paraformaldehyde and embedded in paraffin to prepare sections. The paraffin sections were cut to 4-μm thickness, deparaffinized, and then rehydrated. For antigen exposure, slides were autoclaved in a 10 mM sodium citrate buffer (pH 6.0). To block endogenous peroxidase activity prior to peroxidase IHC analysis, the tissues were incubated with 0.3% H2O2 for 10 minutes. The incubated sections were treated with phosphate-buffered saline (PBS) containing 10% NGS and 0.3% Tween-20 for 1 hour at room temperature, treated with primary antibodies of anti-PPARγ (1:50; Abcam), and incubated overnight at 4° C.
The sections treated with the primary antibodies were washed with PBS and incubated with biotinylated anti-mouse (1:400; Dako) or anti-rabbit (1:400; Dako) secondary antibodies for 1 hour at room temperature. The sections incubated with the secondary antibodies were stained with 3,3′-diaminobenzidine (DAB; Dako) for 3-7 minutes and then counterstained with Mayer's haematoxylin. All incubations were performed in a humid chamber. After the staining, images were taken and analyzed using a bright-field microscope (Nikon TE-2000U).

[2] = tested on: mice induced with metabolic dysfunction-associated steatohepatitis (MASH); test: Liver fibrosis score from collagen staining (Picrosirius red) in MASH mice; details: 25 mg/kg/day orally for 4 weeks; mean±SD; normal group 0, MASH group 3.11
Procedure: as §1, §2, §3, §4
After preparing the 7 groups, the animals were euthanized using carbon dioxide and the liver tissues were extracted. The extracted tissues were fixed in 4% neutral paraformaldehyde and embedded in paraffin to prepare sections. The paraffin sections were cut to 4-μm thickness, deparaffinized, and then rehydrated. The hydrated sections were stained with a Weigert's iron hematoxylin solution for 8 minutes and then with Picrosirius red for 1 hour. Collagen fibers were stained red and nuclei were stained blue. The sections were photographed using a bright-field microscope (Nikon TE-2000U).
The main mechanism of nonalcoholic fatty liver disease is the induction of hepatic stellate cell activation, which induces collagen production and leads to liver fibrosis due to collagen accumulation. From the result of collagen staining (Picrosirius red) for observing the total amount of collagen deposition in Test Example 3-6, the liver fibrosis score was analyzed. Stages 2 to 3 were diagnosed as nonalcoholic fatty liver disease (MASH) (M. Brunt et al., 2005).
All quantitative data are presented as mean±standard deviation (SD). In each experiment, all measurements were made at least three times, and data were analyzed using the two-tailed, unpaired Student's t test. P values of <0.05 were considered statistically significant.

[3] = tested on: F4/80, CD11 b, α-SMA, collagen I, desmin in liver tissue; test: Liver immunohistochemistry of inflammatory (F4/80, CD11 b) and fibrosis markers (α-SMA, collagen I, desmin) in MASH mice; details: 25 mg/kg/day orally for 4 weeks; vs MASH group (vehicle)
Procedure: as §1
as §2, with “weeks. […]” for “weeks.”
The sections treated with the primary antibodies were washed with PBS and incubated with biotinylated anti-mouse (1:400; Dako) or anti-rabbit (1:400; Dako) secondary antibodies for 1 hour at room temperature. […] After the staining, images were taken and analyzed using a bright-field microscope (Nikon TE-2000U).
Through these experiments, the anti-inflammatory effect of the indoline derivatives of Examples 1 to 4 were analyzed in an animal model of nonalcoholic fatty liver disease. […]

N#Cc1ccc2c(c1)/C(=C1/Nc3ccccc3C1=O)C(=O)N2 [5-cyanoindirubin]
lipid droplet formation and lipid infiltration in liver, Oil Red O staining [1]: no significant difference was observed
Degree of liver fibrosis (fibrosis score) [2]: 2.89
collagen production and α-SMA expression in liver (fibrosis markers) [3]: did not show any significant difference from the MASH group (vehicle)
expression of inflammatory markers F4/80 and CD11 b in liver [3]: no significant difference was observed from the MASH group (vehicle)
